Common to all, as to assay: NCI-60 cell line screen, 48 h
Experiment [1] has as its system A498.
Experiment [2] relates to ACHN.
Experiment [3] deals with BT-549.
Experiment [4] has as its system CAKI-1.
In experiment [5] the test system is DU-145.
Experiment [6] deals with HCC 2998.
The test system of experiment [7] is HL-60.
Experiment [8] relates to HT-29.
The test system of experiment [9] is LOX IMVI.
Experiment [10] concerns MDA-N.
Experiment [11] relates to OVCAR-8.
The test system of experiment [12] is PC-3.
Experiment [13] relates to SF-268.
The subject of experiment [14] is SK-MEL-28.
In experiment [15] the test system is SK-MEL-2.
The subject of experiment [16] is SNB-75.
In experiment [17] the test system is SR.
Experiment [18] concerns SW-620.
Experiment [19] has as its system TK-10.
Experiment [20] has as its system UACC-62.

Data on nine compounds can be found in ChEMBL document CHEMBL1201862, “PubChem BioAssay data set” (2004).

Each structure is given as a SMILES string.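 48-hour exposure; five concentrations; linearly interpolated endpoints. The concentration for 50% growth inhibition is given as GI50.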 Calls of active or inactive are those of the source. No stated cut-off is given here; in the data, active = GI50 up to about 1.1 µM and inactive = higher. Where a SMILES comes first, the peptide text is derived from it. [ ]: non-standard residue; d: D form. The star is where a group is joined. ξ: configuration not given here. NMeF = CN[C@@H](Cc1ccccc1)C(=O)O; NMeV = CN[C@H](C(=O)O)C(C)C; ξNMeN = CNC(CC(N)=O)C(=O)O; NMeA = CN[C@@H](C)C(=O)O; ξNMeV = CNC(C(=O)O)C(C)C; Boc = CC(C)(C)OC(=O)*

Turning to `COc1ccccc1/C=C1\CCC(CN(C)C)C1=O` (stereo not given), the GI50 in experiment [1] is 19.3 µM (inactive); in [2], 8.02 µM (inactive); in experiment [3] it was 13.3 µM (inactive); in experiment [4] it was 5.6 µM (inactive); in experiment [5] it was 11.8 µM (inactive); in experiment [6], 5.21 µM (inactive). The GI50 is 1.49 µM (inactive) in [7]; 4.89 µM (inactive) in [8]; 2.14 µM (inactive) in [9]; 4.09 µM (inactive) in experiment [10]; 5.78 µM (inactive) in [11]; 8.05 µM (inactive) in [12]. Moreover, the GI50 in experiment [13] was 10.6 µM (inactive); in [14] it was 4.36 µM (inactive); in experiment [15], 8.51 µM (inactive); in experiment [16] it was 8.49 µM (inactive); in experiment [17], 6.15 µM (inactive); in experiment [18] it was 2.58 µM (inactive). Further, the figures for the GI50 in experiment [19] and in experiment [20] were 5.73 µM (inactive) and 4.21 µM (inactive), respectively.

`CC(=O)OC1OC(c2ccoc2)C[C@@]12C1CCC3O[C@]3(C)[C@]1(C)C[C@H](OC(C)=O)[C@H]2C` (stereo not given in full): the GI50 in [1], in experiment [2], in experiment [3], in [4], in [5] and in [6] was > 75 µM (inactive) in each case. Also, the GI50 in experiment [7] is 42.9 µM (inactive); in experiment [8], > 75 µM (inactive); in experiment [9] it was > 75 µM (inactive); in experiment [10], > 75 µM (inactive); in experiment [11], > 75 µM (inactive); in experiment [12], 44.7 µM (inactive). In addition, the GI50 in experiment [13], in experiment [14], in experiment [15], in [16], in experiment [17] and in experiment [18] was > 75 µM (inactive) each time. Besides, the GI50 is > 75 µM (inactive) in experiment [19] and 51.3 µM (inactive) in [20].

As for `CC1CNC(c2ccc(-c3nc(-c4ccc(C5=NC(C)CN5)cc4)nc(N(C)C)n3)cc2)=N1` (stereo not given), the GI50 in experiment [1] was 2.05 µM (inactive); in [2], 3.01 µM (inactive); in experiment [3] it was 3.74 µM (inactive); in experiment [4], 17.6 µM (inactive); in experiment [5], 1.78 µM (inactive); in experiment [6], 1.83 µM (inactive). The GI50 is 2.62 µM (inactive) in experiment [7]; 1.79 µM (inactive) in [8]; 1.41 µM (inactive) in experiment [9]; 1.85 µM (inactive) in experiment [10]; 2.12 µM (inactive) in experiment [11]; 1.57 µM (inactive) in [12]. Besides, the GI50 in experiment [13] is 2 µM (inactive); in experiment [14] it was 2.69 µM (inactive); in experiment [15], 2.01 µM (inactive); in [16], 1.82 µM (inactive); in experiment [17], 0.653 µM (active); in experiment [18] it was 1.17 µM (inactive). The GI50 in [19] was 3.78 µM (inactive); in experiment [20] it was 1.73 µM (inactive).

For the compound `COCCOC1=C(Cl)C(=O)c2c(O)ccc(O)c2C1=O`, the GI50 was 10.4 µM (inactive) in [1]; 1.11 µM (active) in [2]; 2.52 µM (inactive) in experiment [3]; 0.438 µM (active) in experiment [4]; 5.26 µM (inactive) in [5]; 8.2 µM (inactive) in experiment [6]. For the same compound, the GI50 in experiment [7] was 0.111 µM (active); in experiment [8], 2.37 µM (inactive); in [9] it was 1.16 µM (inactive); in experiment [10] it was 1.34 µM (inactive); in experiment [11] it was 1.63 µM (inactive); in [12], 4.62 µM (inactive). For the same compound, the GI50 in experiment [13] is 4.71 µM (inactive); in experiment [14], 2.27 µM (inactive); in experiment [15], 5.98 µM (inactive); in experiment [16], 5.55 µM (inactive); in [17], 0.78 µM (active); in [18] it was 0.444 µM (active). In addition, the figures for the GI50 in experiment [19] and in experiment [20] were 1.47 µM (inactive) and 4.81 µM (inactive), respectively.

As for `CN(C)CCNC(=O)c1c(O)ccc2c1c1c(n2CCc2ccccc2)C(=O)c2ccccc2C1=O`, the GI50 in experiment [1] was 14.8 µM (inactive); in experiment [2], 9.18 µM (inactive); in experiment [3], 16.1 µM (inactive); in experiment [4] it was 7.08 µM (inactive); in [5] it was 4.57 µM (inactive); in experiment [6] it was 1.22 µM (inactive). The GI50 is 9.18 µM (inactive) in experiment [7]; 6.82 µM (inactive) in experiment [8]; 2.43 µM (inactive) in experiment [9]; 2.25 µM (inactive) in [10]; 8.36 µM (inactive) in [11]; 12 µM (inactive) in experiment [12]. In addition, the GI50 in [13] was 4.15 µM (inactive); in [14] it was 1.98 µM (inactive); in experiment [15] it was 5.87 µM (inactive); in experiment [16], 14.4 µM (inactive); in experiment [17], 2.58 µM (inactive); in experiment [18] it was 6.93 µM (inactive). The GI50 is 7.93 µM (inactive) in [19] and 2.76 µM (inactive) in experiment [20].

Take `c1ccc(N/N=C2\CC(c3ccccc3)Oc3ccccc32)cc1` (stereo not given): the GI50 in experiment [1] was 42.2 µM (inactive); in experiment [2], 43.5 µM (inactive); in experiment [3], 39.8 µM (inactive); in experiment [4], 50.2 µM (inactive); in [5], 36 µM (inactive); in experiment [6], 43.4 µM (inactive). The GI50 in experiment [7] is 38.2 µM (inactive); in experiment [8], 32.4 µM (inactive); in experiment [9] it was 34.2 µM (inactive); in experiment [10], 31.5 µM (inactive); in experiment [11], 39.6 µM (inactive); in [12], 47.1 µM (inactive). Further, the GI50 in experiment [13] was 35.8 µM (inactive); in [14], > 100 µM (inactive); in [15], 65.3 µM (inactive); in [16] it was 22.9 µM (inactive); in experiment [17], 42.1 µM (inactive); in [18], 30.5 µM (inactive). Further, the GI50 in experiment [19] was 74.1 µM (inactive); in experiment [20] it was 40.6 µM (inactive).

In the case of `N#Cc1c2ccc([N+](=O)[O-])cc2c(=O)n2c1[nH]c1ccc(C(F)(F)F)cc12`, the GI50 in experiment [1] is 7.91 µM (inactive); in [2] it was 48 µM (inactive); in experiment [3], 25.2 µM (inactive); in [4] it was 60.8 µM (inactive); in [5], 44.4 µM (inactive); in experiment [6], 15.2 µM (inactive). The GI50 in experiment [7] was 0.254 µM (active); in [8], 11.2 µM (inactive); in experiment [9], 6.56 µM (inactive); in experiment [10], > 64.9 µM (inactive); in experiment [11] it was 33.1 µM (inactive); in [12], > 38.2 µM (inactive). Also, the GI50 in [13] was 39.6 µM (inactive); in [14] it was 24.2 µM (inactive); in experiment [15] it was > 64.7 µM (inactive); in experiment [16] it was 27.3 µM (inactive); in experiment [17], 4.07 µM (inactive); in experiment [18], 14.4 µM (inactive). Further, the GI50 in experiment [19] is 99.5 µM (inactive); in experiment [20] it was 42.7 µM (inactive).

For the compound `COC(=O)[C@H](C)N(C)C(=O)C(CC(N)=O)N(C)C(=O)[C@H](Cc1ccccc1)N(C)C(=O)[C@@H]1CCCN1C(=O)[C@H](C(C)C)N(C)C(=O)C(C(C)C)N(C)C(=O)[C@@H](NC(=O)OC(C)(C)C)C(C)C` (stereo not given in full) (Boc-V[ξNMeV][NMeV]P[NMeF][ξNMeN][NMeA]-OMe), the GI50 in [1], in experiment [2], in experiment [3], in experiment [4], in experiment [5] and in experiment [6] was > 50 µM (inactive) throughout. In addition, the GI50 is 12.1 µM (inactive) in experiment [7]; > 50 µM (inactive) in [8]; > 50 µM (inactive) in experiment [9]; > 50 µM (inactive) in experiment [10]; 48.6 µM (inactive) in [11]; > 50 µM (inactive) in experiment [12]. Moreover, the GI50 was 41.7 µM (inactive) in [13]; > 50 µM (inactive) in experiment [14]; > 50 µM (inactive) in experiment [15]; 44 µM (inactive) in [16]; 21.3 µM (inactive) in experiment [17]; > 50 µM (inactive) in [18]. In addition, the GI50 in experiment [19] and in experiment [20] was > 50 µM (inactive) throughout.

As for `C[C@H]1C/C=C/[C@H]2[C@@H]3O[C@]3(C)[C@@H](C)[C@H]3[C@H](Cc4ccccc4)NC(=O)[C@]32OC(=O)O/C=C/[C@@](C)(O)C1=O` [CYTOCHALASIN E], the GI50 in [1] was 0.0181 µM (active); in experiment [2], < 0.01 µM (active); in [3], 0.0392 µM (active); in [4] it was 0.0132 µM (active); in [5], < 0.01 µM (active); in experiment [6], 0.138 µM (active). For the same compound, the GI50 in experiment [7] was 0.0838 µM (active); in experiment [8], 0.0194 µM (active); in experiment [9] it was 0.0128 µM (active); in experiment [10] it was 0.0231 µM (active); in experiment [11], 23.6 µM (inactive); in experiment [12] it was 0.0141 µM (active). In addition, the GI50 in experiment [13] was 0.0638 µM (active); in experiment [14], 0.2 µM (active); in experiment [15], 0.393 µM (active); in experiment [16], 0.0102 µM (active); in experiment [17], 0.065 µM (active); in experiment [18], 21.8 µM (inactive). For the same compound, the GI50 was < 0.01 µM (active) in [19] and 0.1 µM (active) in [20].
